pEC50, pIC50: −log10 of the molar value. Where a name gives a salt, the structure may show the parent alone. Read-outs that look alike come from different tables or passages of the source.
Legend:
FKBP F36I = target: T1, FKBP F36I (Homo sapiens, UniProt P62942, F37I); test: Competitive Binding FP Assay, F36I mutant FKBP
T1 construct: made in house
Procedure: (§1) Affinities of bumped synthetic ligands for FKBP were determined using a competitive assay based on fluorescence polarization (FP). […] The assay yields IC50 values that are related to the affinity of the competitive ligand for the protein.
(§2) For competition FP assays, the appropriate protein concentration (giving ˜90% binding of probe) was first determined by direct binding of probe to protein (see eg. Beacon FP System Applications Guide, Panvera Corp, Madison, Wis.). All binding assay procedures were performed at room temperature. Serial dilutions of each protein were prepared in 50 mM potassium phosphate pH 7.8/150 mM NaCl/100 μg/ml bovine gamma globulin (“FP buffer”: prepared using only low-fluorescence reagents from Panvera), and 100 μl volumes transferred to wells of a Dynatech micro-fluor black 96-well fluorescence plate. 100 μl of 10 nM 4 in FP buffer plus 2% ethanol (prepared from an ethanol stock of the probe) was then added to each well with mixing. Duplicate control wells contained FP buffer instead of FKBP (for 0% probe binding) or 10 μM wild-type FKBP (for 100% binding).
(§3) The plates were stored covered in the dark for approximately 30 min to permit equilibration and then the fluorescence polarization of the sample in each well was read on a Jolley FPM-2 FP plate reader (Jolley Consulting and Research, Inc., Grayslake, Ill.) in accordance with the manufacturer's recommendations. Polarization (mP units) for each protein concentration was plotted (y axis) vs. final concentration of FKBP (x axis). Concentrations were determined by OD280 measurements. Arbitrary units were used for non-quantitated proteins. Non-linear least square analysis was used to fit the curve and extract the Kd of the protein for the probe (in cases where the protein concentration was known) using the following four-parameter equation: y=M3+(((x+M1+M2)−SQRT(((x+M1+M2)^2)−(4*x*M1)))/(2*(M1)))*(M4−M3) where M1 is the probe concentration, M2 the Kd, and M3 and M4 the minimum and maximum mP values respectively.
(§4) Serial 10-fold dilutions of each synthetic ligand were prepared in 100% ethanol in glass vials and stored on ice. All other manipulations were performed at room temperature. […] 2.0 μl samples of the synthetic ligands were then transferred in duplicate to the wells with mixing. Finally, a probe solution was prepared containing 10 nM 4 in 0.1% ethanol/FP buffer, and 100 μl added to each well with mixing. Duplicate control wells contained ethanol instead of FKBP ligand (for 100% probe binding) or ethanol instead of FKBP ligand and FP buffer instead of FKBP (0% binding).
(§5) The plates were stored covered in the dark for approximately 30 min to permit equilibration and then the fluorescence polarization of the sample in each well read on a Jolley FPM-2 FP plate reader (Jolley Consulting and Research, Inc., Grayslake, Ill.) in accordance with the manufacturer's recommendations. The mean polarization (mP units) for each competitor concentration, in some cases converted to % total binding by reference to the control values, was plotted (y axis) vs. log molar final concentration of competitor (x axis). Non-linear least square analysis was used to fit the curve and extract the IC50 using the following equation: y=M1+(M4−M1)/(1+exp(M2*(M3−x))) where M3 is the IC50. For incomplete curves the IC50 was determined by interpolation.

FKBP F36A = target: T2, FKBP F36A (Homo sapiens, UniProt P62942, F37A); test: Competitive Binding FP Assay, F36A mutant FKBP
T2 construct: made in house
T2 sequence (P62942 whole entry F37A): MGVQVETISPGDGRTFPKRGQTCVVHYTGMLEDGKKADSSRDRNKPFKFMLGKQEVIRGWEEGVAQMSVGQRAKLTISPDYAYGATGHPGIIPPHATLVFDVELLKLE
Procedure: as §1, §2, §3, §4, §5

wild-type human FKBP12 [1] = target: T3, wild-type human FKBP12 (Homo sapiens, UniProt P62942); test: Competitive Binding FP Assay, wild-type FKBP; conditions: for wild-type, % @ 100000: Synthetic Monomers table, @ 100000 nM competitor
T3 sequence (P62942 whole entry): as the sequence (P62942 whole entry F37A) above, with A37F counted along it
Procedure: as §1, §2, §3
(§6) Serial 10-fold dilutions of each synthetic ligand were prepared in 100% ethanol in glass vials and stored on ice. All other manipulations were performed at room temperature. […] Finally, a probe solution was prepared containing 10 nM 4 in 0.1% ethanol/FP buffer, and 100 μl added to each well with mixing. […]
(§7) The plates were stored covered in the dark for approximately 30 min to permit equilibration and then the fluorescence polarization of the sample in each well read on a Jolley FPM-2 FP plate reader (Jolley Consulting and Research, Inc., Grayslake, Ill.) in accordance with the manufacturer's recommendations. […] For incomplete curves the IC50 was determined by interpolation.

FKBP F36M = target: T4, FKBP F36M (Homo sapiens, UniProt P62942, F37M); test: Competitive Binding FP Assay, F36M mutant FKBP
T4 construct: made in house
T4 sequence (P62942 whole entry F37M): as the sequence (P62942 whole entry F37A) above, with A37M counted along it
Procedure: as §1, §2, §3, §4, §5

FKBP F36V = FKBP F36V (Homo sapiens, UniProt P62942, F37V); test: Competitive Binding FP Assay, F36V mutant FKBP
Chain of FKBP F36V (P62942 whole entry F37V): as the sequence (P62942 whole entry F37A) above, with A37V counted along it
Procedure: as §1
(§8) For competition FP assays, the appropriate protein concentration (giving ˜90% binding of probe) was first determined by direct binding of probe to protein (see eg. Beacon FP System Applications Guide, Panvera Corp, Madison, Wis.). All binding assay procedures were performed at room temperature. Serial dilutions of each protein were prepared in 50 mM potassium phosphate pH 7.8/150 mM NaCl/100 μg/ml bovine gamma globulin (“FP buffer”: prepared using only low-fluorescence reagents from Panvera), and 100 μl volumes transferred to wells of a Dynatech micro-fluor black 96-well fluorescence plate. 100 μl of 10 nM 4 in FP buffer plus 2% ethanol (prepared from an ethanol stock of the probe) was then added to each well with mixing. […]
(§9) The plates were stored covered in the dark for approximately 30 min to permit equilibration and then the fluorescence polarization of the sample in each well was read on a Jolley FPM-2 FP plate reader (Jolley Consulting and Research, Inc., Grayslake, Ill.) in accordance with the manufacturer's recommendations. […] Concentrations were determined by OD280 measurements. Arbitrary units were used for non-quantitated proteins. […]

FKBP F36L = FKBP F36L (Homo sapiens, UniProt P62942, F37L); test: Competitive Binding FP Assay, F36L mutant FKBP
Chain of FKBP F36L (P62942 whole entry F37L, the tested form may be a part): as the sequence (P62942 whole entry F37A) above, with A37L counted along it
Procedure: as §1, §2
The plates were stored covered in the dark for approximately 30 min to permit equilibration and then the fluorescence polarization of the sample in each well was read on a Jolley FPM-2 FP plate reader (Jolley Consulting and Research, Inc., Grayslake, Ill.) in accordance with the manufacturer's recommendations. Polarization (mP units) for each protein concentration was plotted (y axis) vs. final concentration of FKBP (x axis). Concentrations were determined by OD280 measurements. Arbitrary units were used for non-quantitated proteins. […]
as §7

[2] = target: T5, FAS-FKBP fusion (36V FKBP) in HT1080 cells (Homo sapiens, UniProt P62942, F37V); test: Apoptosis Assay: Fas killing (36V, stable); type: cell-based; conditions: mean values
T5 construct: fused on or other part: Fas intracellular effector domain (gives the death read-out)
T5 sequence (P62942 2-108 F37V limits assumed): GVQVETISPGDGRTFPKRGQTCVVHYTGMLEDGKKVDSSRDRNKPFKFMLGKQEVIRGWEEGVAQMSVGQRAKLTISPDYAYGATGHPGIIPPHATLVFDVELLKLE
Source text: In this case, one uses cells which constitutively express a detectable product. The cells also contain and are capable of expressing DNAs encoding chimeric proteins comprising one or more immunophilin-derived ligand binding domains and one or more effector domains, such as the intracellular domain of FAS, capable, upon multimerization, of triggering cell death. […] The cells are maintained or cultured in a culture medium permitting cell growth or continued viability. The cells or medium are assayed for the presence of the constitutive cellular product, and a base-line level of reporter is thus established. One may use cells engineered for constitutive production of hGH or any other conveniently detectable product to serve as the reporter. […]
The ability of a dimerizer to activate the Fas signal transduction pathway and trigger cell death in cells engineered to express a FAS-FKBP fusion can be tested in cells appropriately transduced by retroviral vectors to express the desired fusion protein. […] The next day, medium is removed and replaced with medium containing 10% Alamar Blue viability indicator, which changes absorbance properties as a function of reducing agent released into the medium by cell metabolism. Alternatively, cells are counted. Optical density at the appropriate wavelength is measured using a platereader spectroscope.

wild-type human FKBP12 [3] = target: T3, wild-type human FKBP12
Procedure: as §1, §2, §3, §6, §7

FKBP F36S = target: T6, FKBP F36S (Homo sapiens, UniProt P62942, F37S); test: Competitive Binding FP Assay, F36S mutant FKBP; conditions: Synthetic Monomers table; normalized to FK506 run in the same experiment
T6 construct: made in house
T6 sequence (P62942 whole entry F37S): as the sequence (P62942 whole entry F37A) above, with A37S counted along it
Procedure: as §1, §8, §9

[4] = Synthetic Monomers table, normalized to FK506 run in the same experiment

T1 sequence (P62942 whole entry F37I): as the sequence (P62942 whole entry F37A) above, with A37I counted along it

COc1ccc(CCC(OC(=O)C2CCCCN2C(=O)C(c2ccccc2)C2CCCC2)c2cccc(OCC(=O)O)c2)cc1OC (mixture of isomers) [AP1778]
pIC50 (FKBP F36I; [4]): 7.39
pIC50 (FKBP F36A; [4]): 7.12

COc1ccc(CC[C@@H](OC(=O)[C@@H]2CCCCN2C(=O)C(c2ccccc2)c2ccccc2)c2cccc(OCC(=O)O)c2)cc1OC [AP14245]
wild-type, % @ 100000 (wild-type human FKBP12 [1]): 73% @ 100000

COc1ccc(CCC(OC(=O)C2CCCCN2C(=O)C(c2ccccc2)C(C)C)c2cccc(OCC(=O)O)c2)cc1OC (mixture of isomers) [AP1781]
pIC50 (FKBP F36I; [4]): 7.44
pIC50 (FKBP F36M; [4]): 7.26
pIC50 (FKBP F36A; [4]): 6.96

CC[C@H](C(=O)N1CCCC[C@H]1C(=O)O[C@H](CCc1ccc(OC)c(OC)c1)c1cccc(OCC(=O)O)c1)c1cc(OC)c(OC)c(OC)c1 [AP1867]
pIC50 (FKBP F36I): 8.29
pIC50 (FKBP F36M): 8.00
pIC50 (FKBP F36A): 7.74
pIC50 (wild-type human FKBP12 [1]): 5.53
pIC50 (FKBP F36V): 8.74
pIC50 (FKBP F36L): 8.21

AP20187
pEC50 [2]: > 9.00

COc1ccc(CC[C@@H](OC(=O)[C@@H]2CCCCN2C(=O)Cc2ccccc2)c2cccc(OCC(=O)O)c2)cc1OC [AP1780]
pIC50 (FKBP F36L; read-out: F36L IC50, Synthetic Monomers table, normalized to FK506 run in the same experiment): 5.45

CCC(C(=O)N1CCCC[C@H]1C(=O)O[C@H](CCc1ccc(OC)c(OC)c1)c1cccc(OCC(=O)O)c1)c1ccc2c(c1)OCO2 (stereo partly drawn) [AP1839]
pIC50 (wild-type human FKBP12 [3]): < 4.77

COc1ccc(CCC(OC(=O)C2CCCCN2C(=O)C(Cc2ccccc2)c2ccccc2)c2cccc(OCC(=O)O)c2)cc1OC (mixture of isomers) [AP1831]
pIC50 (FKBP F36I; [4]): 6.91
pIC50 (FKBP F36M; [4]): 6.77
pIC50 (FKBP F36A; [4]): 6.35

CCC(C)(C)C(=O)C(=O)N1CCCC[C@H]1C(=O)O[C@H](CCc1ccc(OC)c(OC)c1)c1cccc(OCC(=O)O)c1 [AP1497]
pIC50 (FKBP F36I; [4]): 7.37
pIC50 (FKBP F36A; [4]): 6.76
pIC50 (FKBP F36S): 5.74

CC[C@H](C(=O)N1CCCC[C@H]1C(=O)O[C@H](CCN1CCOCC1)c1cccc(OCC(=O)O)c1)c1cc(OC)c(OC)c(OC)c1 [AP14246, (1R)-1-(3-(carboxymethoxy)phenyl)-3-(morpholino)-1-propyl (2S)-1-((2S)-(3,4,5-trimethoxyphenyl)butyryl)-2-piperidine carboxylate]
pIC50 (FKBP F36I): 7.49
pIC50 (FKBP F36M): 7.28
pIC50 (FKBP F36A): 7.11
wild-type, % @ 100000 (wild-type human FKBP12 [1]): 75% @ 100000
pIC50 (FKBP F36V): 7.78
pIC50 (FKBP F36L): 7.17

CC[C@H](C(=O)N1CCCC[C@H]1C(=O)O[C@H](CCc1cccnc1)c1cccc(OCC(=O)O)c1)c1cc(OC)c(OC)c(OC)c1 [AP14252, hydrochloride]
pIC50 (FKBP F36I): 8.17
pIC50 (FKBP F36M): 7.27
pIC50 (FKBP F36A): 7.20

Source: US8436183B2, “Synthetic multimerizing agents” (ARIAD Pharmaceuticals, Inc., priority 1994, dated 2013)
